Measured values taken from PubChem BioAssay (NCI).
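Step 1: Grow cells in 96-well plates. Step 2: Expose to compound for 48 hours at 5 concentrations. Step 3: Interpolate endpoints linearly; if unreached, use highest concentration. At the GI50, growth is halved. Definition used: TGI = concentration required for complete inhibition of growth.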

Assays:
Assay in all cases: inhibition of tumour cell growth, NCI panel, 48 h
[1] = system: DMS 273 small cell lung
[2] = system: KM20L2 colon
[3] = system: MOLT-4 leukemia
[4] = system: NCI-H226 lung
[5] = system: RPMI-8226 leukemia
[6] = system: SF-539 CNS
[7] = system: SW-620 colon
[8] = system: BT-549 breast
[9] = system: HS 578T breast
[10] = system: MDA-MB-435

## COc1cc(/C=C2\Cc3ccccc3C2=O)cc(OC)c1OC
[1]
  TGI: > 100 µM
[2]
  TGI: > 100 µM
[3]
  TGI: > 100 µM
[4]
  TGI: > 100 µM
[5]
  TGI: > 100 µM
[6]
  TGI: > 100 µM
[7]
  TGI: > 100 µM

## C/C(=N\NS(=O)(=O)c1c(C)cc(C)cc1C)c1ccc[n+]([O-])n1
[1]
  TGI: 34.8 µM
[2]
  TGI: 54.6 µM
[3]
  TGI: 37 µM
[5]
  TGI: 31.4 µM
[6]
  TGI: 27.7 µM
[7]
  TGI: 22.3 µM

## Fc1ccc2c(c1)cc1ccc3cccc4ccc2c1c34
[1]
  TGI: > 100 µM
[2]
  TGI: > 100 µM
[3]
  TGI: > 100 µM
[4]
  TGI: > 100 µM
[6]
  TGI: > 100 µM
[7]
  TGI: > 100 µM

## COc1ccc(NS(=O)(=O)c2ccc(N=C3C=C(Nc4ccc(S(=O)(=O)Nc5ccc(OC)nn5)cc4)C(=O)c4ccccc43)cc2)nn1
[1]
  TGI: 28.4 µM
[2]
  TGI: 31.8 µM
[3]
  TGI: > 100 µM
[4]
  TGI: 34.2 µM
[5]
  TGI: > 100 µM
[6]
  TGI: 31.6 µM
[7]
  TGI: 32.9 µM

## COc1ccc2c(c1OC)C(C=C(c1ccccc1)c1ccccc1)CN(C)C2 (centres undefined)
[1]
  TGI: 34.9 µM
[2]
  TGI: 35.5 µM
[3]
  TGI: 64.7 µM
[4]
  TGI: 98.6 µM
[5]
  TGI: 50.8 µM
[6]
  TGI: 56.6 µM
[7]
  TGI: 26.2 µM

## O=C(COC(=O)c1cccc2c(=O)c3ccccc3[nH]c12)Nc1ccc(S(=O)(=O)Nc2ncccn2)cc1
[1]
  TGI: > 100 µM
[2]
  TGI: > 100 µM
[3]
  TGI: 71 µM
[4]
  TGI: > 100 µM
[5]
  TGI: > 100 µM
[6]
  TGI: 39.1 µM
[7]
  TGI: > 100 µM

## CN=C(N)NC
[1]
  TGI: > 100 µM
[2]
  TGI: > 100 µM
[3]
  TGI: > 100 µM
[4]
  TGI: > 100 µM
[5]
  TGI: > 100 µM
[6]
  TGI: > 100 µM
[7]
  TGI: > 100 µM

## CC(C)c1cc(C(=O)[O-])c(O)c(C(C)C)c1.CC(C)c1cc(C(=O)[O-])c(O)c(C(C)C)c1.CC(C)c1cc(C(=O)[O-])c(O)c(C(C)C)c1.CC(C)c1cc(C(=O)[O-])c(O)c(C(C)C)c1.CC(C)c1cc(C(=O)[O-])c(O)c(C(C)C)c1.CC(C)c1cc(C(=O)[O-])c(O)c(C(C)C)c1.[Cu+2].[Mn+2].[Mn+2]
[1]
  GI50: 22.4 µM
  TGI: > 100 µM
[2]
  GI50: 26.1 µM
  TGI: > 100 µM
[3]
  GI50: 20.3 µM
  TGI: 66.1 µM
[5]
  GI50: 14.5 µM
  TGI: 50.4 µM
[6]
  GI50: 22.1 µM
  TGI: 39.8 µM
[7]
  GI50: 14.8 µM
  TGI: 29.5 µM

## COc1cc2ccc3c4cc(OC)c(OC(C)C)cc4c[n+](C)c3c2cc1OC
[2]
  TGI: > 100 µM
[3]
  TGI: > 100 µM
[4]
  TGI: > 100 µM
[5]
  TGI: > 100 µM
[6]
  TGI: > 100 µM
[7]
  TGI: > 100 µM

## O=C(CC1SC(=Nc2ccccc2Cl)NC1=O)Nc1ccc(Cl)cc1 (centres undefined)
[1]
  TGI: > 100 µM
[2]
  TGI: > 100 µM
[6]
  TGI: > 100 µM
[7]
  TGI: 28.4 µM

## CC(C)C1NC(=O)[C@H](C)OC(=O)[C@@H](C(C)C)NC(=O)[C@@H](C)OC(=O)C(C(C)C)NC(=O)[C@H](C)OC1=O (some centres undefined)
[1]
  TGI: > 100 µM
[2]
  TGI: > 100 µM
[3]
  TGI: > 100 µM
[4]
  TGI: > 100 µM
[5]
  TGI: > 68.8 µM
[6]
  TGI: > 81.7 µM
[7]
  TGI: > 51.7 µM

## CC(=O)OC1(C#N)CC2OC1C1N=NN(C(=O)OC(C)(C)C)C21 (centres undefined)
[1]
  TGI: > 100 µM
[2]
  TGI: > 100 µM
[3]
  TGI: > 100 µM
[4]
  TGI: > 100 µM
[5]
  TGI: > 100 µM
[6]
  TGI: > 100 µM
[7]
  TGI: 23.1 µM

## CC(C)(C)C1CCC(=O)C(C(O)CC2CC(=O)N(c3ccccc3)C(=O)C2)C1 (centres undefined)
[1]
  TGI: > 100 µM
[2]
  TGI: > 100 µM
[3]
  TGI: > 100 µM
[4]
  TGI: > 100 µM
[5]
  TGI: > 100 µM
[6]
  TGI: > 100 µM
[7]
  TGI: > 100 µM

## N.N.NCCCCCN.O=C([O-])CC(=O)[O-].O=C([O-])CC(=O)[O-].[Pt+4].[Pt+4]
[2]
  GI50: > 100 µM
  TGI: > 100 µM
[3]
  GI50: 65.5 µM
  TGI: > 100 µM
[4]
  GI50: > 100 µM
  TGI: > 100 µM
[5]
  GI50: > 100 µM
  TGI: > 100 µM
[6]
  GI50: 77.4 µM
  TGI: > 100 µM
[7]
  GI50: > 100 µM
  TGI: > 100 µM

## Cn1cc2ccccc2c1-c1nc(F)nc(Nc2ccc(N)cc2)n1
[1]
  TGI: 25.6 µM
[2]
  TGI: 47.4 µM
[3]
  TGI: 65.5 µM
[4]
  TGI: 32.7 µM
[5]
  TGI: 76.5 µM
[6]
  TGI: 35.1 µM
[7]
  TGI: 35 µM

## CCC(C)(C)NS(=O)(=O)c1ccccc1
[1]
  TGI: > 100 µM
[2]
  TGI: > 100 µM
[3]
  TGI: > 100 µM
[5]
  TGI: > 100 µM
[6]
  TGI: > 100 µM
[7]
  TGI: > 100 µM

## CCOc1ccc(N=Cc2ccc3ccccc3n2)cc1
[1]
  TGI: > 100 µM
[2]
  TGI: > 100 µM
[3]
  TGI: > 100 µM
[4]
  TGI: > 100 µM
[5]
  TGI: > 100 µM
[6]
  TGI: > 100 µM
[7]
  TGI: > 100 µM

## CCN(CC)/[N+]([O-])=N/OCC(C)O (centres undefined)
[1]
  TGI: > 100 µM
[3]
  TGI: > 100 µM
[4]
  TGI: > 100 µM
[6]
  TGI: > 100 µM
[7]
  TGI: > 100 µM

## COC(=O)c1ccc(/C=C/S(=O)(=O)c2ccccc2)cc1
[1]
  TGI: > 100 µM
[2]
  TGI: > 100 µM
[3]
  TGI: > 100 µM
[4]
  TGI: > 100 µM
[5]
  TGI: > 100 µM
[6]
  TGI: > 100 µM
[7]
  TGI: > 100 µM

## COc1cc(OC)cc(C(=O)Cc2c(C(=O)c3ccccc3)c3ccccc3n2C(=O)c2ccccc2)c1
[1]
  TGI: > 100 µM
[2]
  TGI: > 100 µM
[3]
  TGI: > 100 µM
[4]
  TGI: > 100 µM
[5]
  TGI: > 100 µM
[6]
  TGI: > 100 µM
[7]
  TGI: > 100 µM

## C#CCN(Cc1nc2cc(C(F)(F)F)ccc2nc1-c1ccccc1)c1ccc(F)cc1
[8]
  GI50: 48 µM
  TGI: > 100 µM
[9]
  GI50: 34.7 µM
  TGI: > 100 µM
[10]
  GI50: 38 µM
  TGI: > 100 µM
[3]
  GI50: 36.5 µM
  TGI: > 100 µM
[4]
  GI50: 42.4 µM
  TGI: > 100 µM
[5]
  GI50: 23.3 µM
  TGI: 68.7 µM
[6]
  GI50: 37.4 µM
  TGI: > 100 µM
[7]
  GI50: 26.4 µM
  TGI: > 100 µM

## CN1CCN(c2ccc(-c3cccc(CN4CCOCC4)c3)cc2NC(=O)c2c[nH]c(=O)cc2C(F)(F)F)CC1
[8]
  GI50: 23.7 µM
  TGI: > 100 µM
[9]
  GI50: 44.8 µM
  TGI: > 100 µM
[10]
  GI50: 30.2 µM
  TGI: > 100 µM
[3]
  GI50: 19 µM
  TGI: 64 µM
[4]
  GI50: > 100 µM
  TGI: > 100 µM
[5]
  GI50: 38.2 µM
  TGI: > 100 µM
[6]
  GI50: 19.5 µM
  TGI: 44.7 µM
[7]
  GI50: 33.6 µM
  TGI: > 100 µM

## N#CC(C(=O)O)C(c1c(Cl)cccc1Cl)C(C#N)C(=O)O (centres undefined)
[8]
  TGI: > 100 µM
[9]
  TGI: > 100 µM
[10]
  TGI: > 100 µM
[3]
  TGI: > 100 µM
[4]
  TGI: > 100 µM
[5]
  TGI: > 100 µM
[6]
  TGI: > 100 µM
[7]
  TGI: > 100 µM

## CCOC(=O)C(=O)C(/C(=N/N(C)C)C(=O)Nc1ccc(C)cc1C)c1nc2ccccc2[nH]c1=O (centres undefined)
[8]
  TGI: > 100 µM
[9]
  TGI: > 100 µM
[10]
  TGI: > 100 µM
[3]
  TGI: > 100 µM
[4]
  TGI: > 100 µM
[5]
  TGI: > 100 µM
[6]
  TGI: > 100 µM
[7]
  TGI: > 100 µM
